Assay results: PubChem BioAssay (NCI)
Where “and” joins values, the source holds several entries; their conditions need not be identical. Equal values may be shown once.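 Each compound was tested at five concentrations against cells in 96-well plates for 48 hours. Here, GI50 denotes the concentration required for 50% inhibition of growth. Definition used: TGI = concentration required for complete inhibition of growth.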

How the values were obtained:
Assay in all cases: growth of human tumour cells (NCI), 48 h
[1] = system: COLO 205 colon
[2] = system: EKVX NSCLC
[3] = system: HS 578T breast
[4] = system: HT29 colon
[5] = system: KM12 colon
[6] = system: LOX IMVI melanoma
[7] = system: MDA-MB-435
[8] = system: MOLT-4 leukemia
[9] = system: NCI-H522 lung
[10] = system: PC-3 prostate
[11] = system: SK-MEL-28 melanoma
[12] = system: SK-MEL-5 melanoma
[13] = system: SNB-19 CNS
[14] = system: T-47D breast
[15] = system: U251 CNS
[16] = system: CAKI-1 renal
[17] = system: CCRF-CEM leukemia
[18] = system: DU-145 prostate
[19] = system: OVCAR-4 ovarian

| SMILES | TGI [1] | TGI [2] | TGI [3] | TGI [4] | TGI [5] | TGI [6] | TGI [7] | TGI [8] | TGI [9] | TGI [10] | TGI [11] | TGI [12] | TGI [13] | TGI [14] | TGI [15] | TGI [16] | TGI [17] | TGI [18] | TGI [19] | GI50 [5] |
| --- | --- | --- | --- | --- | --- | --- | --- | --- | --- | --- | --- | --- | --- | --- | --- | --- | --- | --- | --- | --- |
| O=C1C=CC(=O)c2c(NCC3CC3)ccc(NCC3CC3)c21 | 41.4 µM | > 100 µM | > 100 µM | 88.4 µM | > 100 µM | 43 µM | 44.8 µM | 44.9 µM | 15.9 µM | > 100 µM | 99.1 µM | 52 µM | > 100 µM | 65.6 µM | > 100 µM | – | – | – | – | – |
| COc1cc(NCc2ccc3nc(-c4ccccc4)c(N)nc3c2)cc(OC)c1OC | 38.6 µM | > 100 µM | – | > 100 µM | 54.5 µM | > 100 µM | 50.7 µM | 58.6 µM | 62.3 µM | 93.6 µM | 69 µM | 28.9 µM | > 100 µM | 91 µM | > 100 µM | 85.8 µM | 77 µM | 99.6 µM | > 100 µM | – |
| CCN(CCCN(CC)C(=O)Nc1ccccc1)C(=O)Nc1ccccc1 | > 100 µM | > 100 µM | – | > 100 µM | > 100 µM | > 100 µM | > 100 µM | > 100 µM | > 100 µM | > 100 µM | > 100 µM | > 100 µM | > 100 µM | > 100 µM | > 100 µM | > 100 µM | > 100 µM | > 100 µM | > 100 µM | – |
| CCOP(=O)(OCC)C(Nc1cccc([N+](=O)[O-])c1)c1ccccc1 (stereo not drawn) | > 100 µM | > 100 µM | – | > 100 µM | > 100 µM | > 100 µM | > 100 µM | > 100 µM | > 100 µM | > 100 µM | > 100 µM | > 100 µM | > 100 µM | 62.1 µM | > 100 µM | > 100 µM | > 100 µM | > 100 µM | > 100 µM | – |
| Cc1nc2ccc(F)cc2c2c1CCO2 | > 100 µM | > 100 µM | > 100 µM | > 100 µM | > 100 µM | > 100 µM | > 100 µM | > 100 µM | > 100 µM | – | > 100 µM | > 100 µM | > 100 µM | > 100 µM | > 100 µM | 96 µM | > 100 µM | > 100 µM | > 100 µM | – |
| O=C(c1ccco1)n1c2ccc(Br)cc2c2nc3ccccc3nc21 | > 100 µM | > 100 µM | – | > 100 µM | 97.6 µM | > 100 µM | > 100 µM | > 100 µM | 41.5 µM | > 100 µM | > 100 µM | > 100 µM | > 100 µM | > 100 µM | > 100 µM | > 100 µM | > 100 µM | > 100 µM | > 100 µM | – |
| OCC1OC(NCCNCCNC2OC(CO)C(O)C(O)C2O)C(O)C(O)C1O (stereo not drawn) | > 100 µM | > 100 µM | > 100 µM | > 100 µM | 22.5 µM and > 100 µM | > 100 µM | – | > 100 µM | > 100 µM | > 100 µM | > 100 µM | > 100 µM | > 100 µM | > 100 µM | > 100 µM | 10.3 µM and > 100 µM | > 100 µM | > 100 µM | – | 10.4 µM and 43.3 µM and > 100 µM |
| COc1cc(/C=C/C(=O)OC2C(O)C3CC(OC(=O)c4cc(OC)c(OC)c(OC)c4)CC2N3C)cc(OC)c1OC (stereo not drawn) | 42.5 µM | > 50 µM | – | > 50 µM | > 50 µM | > 50 µM | > 50 µM | > 50 µM | > 50 µM | > 50 µM | – | > 50 µM | 39.9 µM | 43.7 µM | > 50 µM | > 50 µM | > 50 µM | > 50 µM | > 50 µM | – |
| Cc1cc(NC(=O)NC(=O)c2ccccc2N)ccc1Oc1ncc(Br)cn1 | 0.108 µM | > 84.3 µM | – | 0.258 µM | 54.9 µM | > 67.1 µM | < 0.0108 µM | > 30.3 µM | 0.0555 µM | 6.15 µM | > 100 µM | 16.2 µM | 38.5 µM | > 24.4 µM | 7.25 µM | 63.3 µM | > 100 µM | > 4.64 µM | > 75.9 µM | – |
| CCOP(=O)(OCC)/C(C#N)=C/c1ccc(-c2ccc(F)cc2F)o1 | 30.7 µM | 31 µM | – | 33.1 µM | 31.6 µM | 32.9 µM | 27 µM | 28.4 µM | 37 µM | 24.2 µM | 28.1 µM | 35.7 µM | 33.3 µM | 8.35 µM | 32.6 µM | 28.6 µM | 38.7 µM | 42.5 µM | 33.4 µM | – |
| COc1ccc(C(=O)c2sc(Nc3ccccc3)nc2N)cc1 | – | > 100 µM | > 100 µM | > 100 µM | – | > 100 µM | – | > 100 µM | > 100 µM | > 100 µM | > 100 µM | > 100 µM | > 100 µM | > 100 µM | > 100 µM | – | > 100 µM | > 100 µM | > 100 µM | – |
| NC1CC(N)c2c(Br)sc(Br)c21 (stereo not drawn) | > 100 µM | > 100 µM | > 100 µM | > 100 µM | > 100 µM | > 100 µM | > 100 µM | > 100 µM | > 100 µM | – | > 100 µM | > 100 µM | – | > 100 µM | > 100 µM | > 100 µM | > 100 µM | > 100 µM | > 100 µM | – |
